The target in this experiment is T1, human type 1 glycine transporter (GlyT1) (Homo sapiens, UniProt P48067).
T1 construct: T98G cells (glioma cells) expressing human type 1 glycine transporter (GlyT1) were used
T1 sequence (P48067 1-706): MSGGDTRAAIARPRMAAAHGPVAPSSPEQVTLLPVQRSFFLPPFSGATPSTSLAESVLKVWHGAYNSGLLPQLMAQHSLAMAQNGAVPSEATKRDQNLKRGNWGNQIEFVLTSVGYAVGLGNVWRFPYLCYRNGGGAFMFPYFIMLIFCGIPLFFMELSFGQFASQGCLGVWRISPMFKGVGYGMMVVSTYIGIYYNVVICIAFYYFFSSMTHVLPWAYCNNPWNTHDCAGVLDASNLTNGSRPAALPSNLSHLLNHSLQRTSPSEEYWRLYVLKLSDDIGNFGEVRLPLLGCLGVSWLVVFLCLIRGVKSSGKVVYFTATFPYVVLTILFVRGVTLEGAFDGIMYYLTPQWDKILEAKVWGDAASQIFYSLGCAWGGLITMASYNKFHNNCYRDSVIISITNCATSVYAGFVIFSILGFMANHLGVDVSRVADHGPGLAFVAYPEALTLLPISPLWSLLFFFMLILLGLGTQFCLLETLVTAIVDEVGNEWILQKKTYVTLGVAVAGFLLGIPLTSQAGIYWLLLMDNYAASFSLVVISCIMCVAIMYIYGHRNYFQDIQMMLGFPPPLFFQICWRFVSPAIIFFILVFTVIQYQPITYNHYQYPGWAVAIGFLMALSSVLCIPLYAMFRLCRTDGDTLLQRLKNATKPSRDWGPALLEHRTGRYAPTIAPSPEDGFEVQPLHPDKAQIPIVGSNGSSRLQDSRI
Kind of experiment: Glycine uptake inhibition experiment ([3H]glycine uptake). Type of experiment: cell-based. The note with it: GlyT1. The gist of the method:
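T98G glioma cells expressing human GlyT1 were pretreated 10 min with compound in HEPES buffer pH 7.4 (0.2% BSA), then incubated with compound plus 250 nM final [3H]glycine for 15 min at room temperature. Intracellular radioactivity was counted after NaOH lysis; 10 μM ALX5407 defined non-specific uptake. IC50 came from 10^−9–10^−5 M curves.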

In general, IC50 refers to the point on the concentration scale where inhibition reaches its midpoint. A high value points to weaker potency in that assay. With `O=C(NC(c1cc(Cl)ccc1Cl)C1(O)CCCC1)c1nccc(C(F)(F)F)c1Cl` (stereo not drawn) [Compound 108, 3-chloro-N-[(2,5-dichlorophenyl)(1-hydroxycyclopentyl)methyl]-4-(trifluoromethyl)pyridine-2-carboxamide], 68 nM corresponded to half-maximal inhibition (IC50). To `O=C(N[C@H](c1cccc(Br)c1)[C@]1(O)CC[C@@H](F)CC1)c1nccc(C(F)(F)F)c1Cl` [Compound 109, N-[(R)-(3-bromophenyl)(cis-4-fluoro-1-hydroxycyclohexyl)methyl]-3-chloro-4-(trifluoromethyl)pyridine-2-carboxamide] belongs 6100 nM.

`O=C(N[C@@H](c1cccc(Br)c1)[C@]1(O)CC[C@@H](F)CC1)c1nccc(C(F)(F)F)c1Cl` [Compound 110, N-[(S)-(3-bromophenyl)(cis-4-fluoro-1-hydroxycyclohexyl)methyl]-3-chloro-4-(trifluoromethyl)pyridine-2-carboxamide] registered an IC50 of 95 nM. Turning to `O=C(NC(c1cc(Cl)cc(Cl)c1)C1(O)CCCC1)c1nccc(C(F)(F)F)c1Cl` (stereo not drawn) [Compound 111, 3-chloro-N-[(3,5-dichlorophenyl)(1-hydroxycyclopentyl)methyl]-4-(trifluoromethyl)pyridine-2-carboxamide], the IC50 came to 220 nM. To `CN(C)Cc1cccc(C(NC(=O)c2nccc(C(F)(F)F)c2Cl)C2(O)CCCC2)c1` (stereo not drawn) [Compound 112, 3-chloro-N-[{3-[(dimethylamino)methyl]phenyl}(1-hydroxycyclopentyl)methyl]-4-(trifluoromethyl)pyridine-2-carboxamide] belongs 1800 nM; to `CCn1cc(-c2cccc(C(NC(=O)c3cccc(C(F)(F)F)c3Cl)C3(O)CCC(F)(F)CC3)c2)cn1` (stereo not drawn) [Compound 118, 2-chloro-N-{(4,4-difluoro-1-hydroxycyclohexyl)[3-(1-ethyl-1H-pyraozl-4-yl)phenyl]methyl}-3-(trifluoromethyl)benzamide], 260 nM; to `CCn1cc(-c2cccc(C(NC(=O)c3cccc(Cl)c3Cl)C3(O)CCC(F)(F)CC3)c2)cn1` (stereo not drawn) [Compound 119, 2,3-dichloro-N-{(4,4-difluoro-1-hydroxycyclohexyl)[3-(1-ethyl-1H-pyrazol-4-yl)phenyl]methyl}benzamide], 470 nM.

`CCn1cc(-c2cccc(C(NC(=O)c3c(C)cccc3C)C3(O)CCC(F)(F)CC3)c2)cn1` (stereo not drawn) [Compound 120, N{(4,4-difluoro-1-hydroxycyclohexyl)[3-(1-ethyl-1H-pyrazol-4-yl)phenyl]methyl}-2,6-dimethylbenzamide] came in with an IC50 of 740 nM. The value for `CCn1cc(-c2cccc(C(NC(=O)c3c(Cl)ccc(C(F)(F)F)c3Cl)C3(O)CCC(F)(F)CC3)c2)cn1` (stereo not drawn) [Compound 123, 2,6-dichloro-N-{(4,4-difluoro-1-hydroxycyclohexyl)[3-(1-ethyl-1H-pyrazol-4-yl)phenyl]methyl}-3-(trifluoromethyl)benzamide] was 280 nM. The value for `CCn1cc(-c2cccc(C(NC(=O)c3cccc(Cl)c3C)C3(O)CCC(F)(F)CC3)c2)cn1` (stereo not drawn) [Compound 124, 3-chloro-N-{(4,4-difluoro-1-hydroxycyclohexyl)[3-(1-ethyl-1H-pyrazol-4-yl)phenyl]methyl}-2-methylbenzamide] was 310 nM; that for `CCn1cc(-c2cccc(C(NC(=O)c3cccc(C(F)(F)F)c3C)C3(O)CCC(F)(F)CC3)c2)cn1` (stereo not drawn) [Compound 125, N-{(4,4-difluoro-1-hydroxycyclohexyl)[3-(1-ethyl-1H-pyrazol-4-yl)phenyl]methyl}-2-methyl-3-(trifluoromethyl)benzamide] was 350 nM; that for `CCn1cc(-c2cccc(C(NC(=O)c3cccc(C)c3Cl)C3(O)CCC(F)(F)CC3)c2)cn1` (stereo not drawn) [Compound 126, 2-chloro-N-{(4,4-difluoro-1-hydroxycyclohexyl)[3-(1-ethyl-1H-pyrazol-4-yl)phenyl]methyl}-3-methylbenzamide] was 720 nM. Compound `CCn1cc(-c2cccc(C(NC(=O)c3cc(Cl)ccc3Cl)C3(O)CCC(F)(F)CC3)c2)cn1` (stereo not drawn) [Compound 127, 2,5-dichloro-N-{(4,4-difluoro-1-hydroxycyclohexyl)[3-(1-ethyl-1H-pyrazol-4-yl)phenyl]methyl}benzamide] had a 50% inhibitory concentration (IC50) of 660 nM. To `O=C(NC(c1cccc(Cl)c1)C1(O)CCC(O)C1)c1nccc(C(F)(F)F)c1Cl` (stereo not drawn) [Compound 128, 3-chloro-N-[(3-chlorophenyl)(1,3-dihydroxycyclopentyl)methyl]-4-(trifluoromethyl)pyridine-2-carboxamide] belongs 1100 nM; to `CC(C)n1cc(-c2cccc(C(NC(=O)c3nccc(C(F)(F)F)c3Cl)C3(O)CCC(F)(F)CC3)c2)cn1` (stereo not drawn) [Compound 129, 3-chloro-N-[(4,4-difluoro-1-hydroxycyclohexyl){3-[1-(propan-2-yl)-1H-pyrazol-4-yl]phenyl}methyl]-4-(trifluoromethyl)pyridine-2-carboxamide], 99 nM. The value for `O=C1CCC(O)(C(NC(=O)c2nccc(C(F)(F)F)c2Cl)c2cccc(Cl)c2)C1` (stereo not drawn) [Compound 130, 3-chloro-N-[(3-chlorophenyl)(1-hydroxy-3-oxocyclopentyl)methyl]-4-(trifluoromethyl)pyridine-2-carboxamide] was 1100 nM; that for `O=C(NC(c1cccc(Cl)c1Cl)C1(O)CCC(F)(F)CC1)c1nccc(C(F)(F)F)c1Cl` (stereo not drawn) [Compound 131, 3-chloro-N-[(2,3-dichlorophenyl)(4,4-difluoro-1-hydroxycyclohexyl)methyl]-4-(trifluoromethyl)pyridine-2-carboxamide] was 160 nM. To `O=C(NC(c1cccc(-c2cnn(CC(F)(F)F)c2)c1)C1(O)CCC(F)(F)CC1)c1nccc(C(F)(F)F)c1Cl` (stereo not drawn) [Compound 132, 3-chloro-N-[(4,4-difluoro-1-hydroxycyclohexyl){3-[1-(2,2,2-trifluoroethyl)-1H-pyrazol-4-yl]phenyl}methyl]-4-(trifluoromethyl)pyridine-2-carboxamide] belongs 130 nM; to `CCn1cc(-c2cccc(C(NC(=O)c3cccc4ccccc34)C3(O)CCC(F)(F)CC3)c2)cn1` (stereo not drawn) [Compound 138, N-{(4,4-difluoro-1-hydroxycyclohexyl)[3-(1-ethyl-1H-pyrazol-4-yl)phenyl]methyl}naphthalene-1-carboxamide], 840 nM; to `CCn1cc(-c2cccc(C(NC(=O)c3nccc4ccccc34)C3(O)CCC(F)(F)CC3)c2)cn1` (stereo not drawn) [Compound 139, N-{(4,4-difluoro-1-hydroxycyclohexyl)[3-(1-ethyl-1H-pyrazol-4-yl)phenyl]methyl}isoquinoline-1-carboxamide], 430 nM.

For the compound `CCn1cc(-c2cccc(C(NC(=O)c3ccc(C(F)(F)F)nc3C)C3(O)CCC(F)(F)CC3)c2)cn1` (stereo not drawn) [Compound 140, N-{(4,4-difluoro-1-hydroxycyclohexyl)[3-(1-ethyl-1H-pyrazol-4-yl)phenyl]methyl}-2-methyl-6-(trifluoromethyl)pyridine-3-carboxamide], the IC50 was 3300 nM. The value for `CCn1cc(-c2cccc(C(NC(=O)c3nccnc3Cl)C3(O)CCC(F)(F)CC3)c2)cn1` (stereo not drawn) [Compound 141, 3-chloro-N-{(4,4-difluoro-1-hydroxycyclohexyl)[3-(1-ethyl-1H-pyrazol-4-yl)phenyl]methyl}pyradine-2-carboxamide] was 3100 nM. To `O=C(NC(c1cccc(Br)c1)C1(O)CC=CCC1)c1nccc(C(F)(F)F)c1Cl` (stereo not drawn) [Compound 142, N-[(3-bromophenyl)(1-hydroxycyclohex-3-en-1-yl)methyl]-3-chloro-4-(trifluoromethyl)pyridine-2-carboxamide] belongs 410 nM; to `O=C(NC(c1cccc(-c2ccccn2)c1)C1(O)CCC(F)(F)CC1)c1nccc(C(F)(F)F)c1Cl` (stereo not drawn) [Compound 143, 3-chloro-N-{(4,4-difluoro-1-hydroxycyclohexyl)[3-(pyridin-2-yl)phenyl]methyl}-4-(trifluoromethyl)pyridine-2-carboxamide], 210 nM; to `O=C(NC(c1cccc(-c2cccnc2)c1)C1(O)CCC(F)(F)CC1)c1nccc(C(F)(F)F)c1Cl` (stereo not drawn) [Compound 146, 3-chloro-N-{(4,4-difluoro-1-hydroxycyclohexyl)[3-(pyridin-3-yl)phenyl]methyl}-4-(trifluoromethyl)pyridine-2-carboxamide], 140 nM.

Consider `O=C(NC(c1cc(Cl)ccc1Cl)C1(O)CCC(F)(F)CC1)c1nccc(C(F)(F)F)c1Cl` (stereo not drawn) [Compound 148, 3-chloro-N-[(2,5-dichlorophenyl)(4,4-difluoro-1-hydroxycyclohexyl)methyl]-4-(trifluoromethyl)pyridine-2-carboxamide], for which the IC50 turned out to be 260 nM. The value for `O=C(NC(c1cccc(Cl)c1)[C@]1(O)CC[C@@H](F)CC1)c1nccc(C(F)(F)F)c1Cl` (stereo partly drawn) [Compound 153, 3-chloro-N-[(3-chlorophenyl)(cis-4-fluoro-1-hydroxycyclohexyl)methyl]-4-(trifluoromethyl)pyridine-2-carboxamide] was 98 nM.
